A short description of data set [1]: Cmax in CD1 mouse lung assessed as baloxavir acid level at 15 mg/kg, po administered as single dose by LC-MS/MS analysis. The class given is ADME, organism-based. Also on record: dose 15 mg/kg, route oral. The note with it: in vivo.
Data set [2] is described as follows: MRTlast in CD1 mouse blood assessed as baloxavir acid level at 15 mg/kg, po administered as single dose measured up to 24 hrs by LC-MS/MS analysis. Format: ADME, organism-based. Conditions: in vivo.
Data set [3] is described as follows: Half life in CD1 mouse liver assessed as baloxavir acid level at 15 mg/kg, po administered as single dose measured up to 24 hrs by LC-MS/MS analysis. The class given is ADME, organism-based. The note with it: in vivo.
Data set [4] is described as follows: Elimination rate constant in CD1 mouse lung assessed as baloxavir acid level at 15 mg/kg, po administered as single dose measured up to 24 hrs by LC-MS/MS analysis. Format: ADME, organism-based. Conditions: in vivo.
Data set [5] is described as follows: Elimination rate constant in CD1 mouse small intestine assessed as baloxavir acid level at 15 mg/kg, po administered as single dose measured up to 24 hrs by LC-MS/MS analysis. The class given is ADME, organism-based. The note with it: in vivo.
Data set [6] can be described thus: Half life in CD1 mouse small intestine assessed as baloxavir acid level at 15 mg/kg, po administered as single dose measured up to 24 hrs by LC-MS/MS analysis. Format: ADME, organism-based. The note with it: in vivo.
Data set [7] in a line: MRTlast in CD1 mouse small intestine assessed as baloxavir acid level at 15 mg/kg, po administered as single dose measured up to 24 hrs by LC-MS/MS analysis. Conditions: in vivo. Format: ADME, organism-based.
A short description of data set [8]: Tmax in CD1 mouse brain assessed as baloxavir acid level at 15 mg/kg, po administered as single dose measured up to 24 hrs by LC-MS/MS analysis. The class given is ADME, organism-based. Conditions: in vivo.
Data set [9] in a line: AUCinfinity in CD1 mouse spleen assessed as baloxavir acid level at 15 mg/kg, po administered as single dose measured up to 24 hrs by LC-MS/MS analysis. Format: ADME, organism-based. On the set-up: dose 15 mg/kg, route oral, time infinity. Conditions: in vivo.
Data set [10] can be described thus: Cmax in CD1 mouse muscle assessed as baloxavir acid level at 15 mg/kg, po administered as single dose measured up to 24 hrs by LC-MS/MS analysis. The class given is ADME, organism-based, Muscle tissue. On the set-up: dose 15 mg/kg, route oral. Conditions: in vivo.
Data set [11] can be described thus: MRTlast in CD1 mouse muscle assessed as baloxavir acid level at 15 mg/kg, po administered as single dose measured up to 24 hrs by LC-MS/MS analysis. The class given is ADME, organism-based, Muscle tissue. The note with it: in vivo.
Data set [12] in a line: Acute toxicity in CD1 mouse assessed as effect on body weight at 2000 mg/kg, po measured for 2 weeks. Format: organism-based. The note with it: in vivo, 336 h.
Data set [13] is described as follows: AUClast in CD1 mouse plasma assessed as (12aR)-12-(Diphenylmethyl)-7-hydroxy-3,4,12,12a-tetrahydro-1H-[1,4]oxazino[3,4-c]pyrido[2,1-f ][1,2,4]triazine-6,8-dione level at 15 mg/kg, po administered as single dose by LC-MS/MS analysis. The class given is ADME, organism-based. On the set-up: dose 15 mg/kg, time 0 - last, route oral. The note with it: in vivo.
Data set [14] is described as follows: Ratio of Cmax in CD1 mouse lung to plasma assessed as (12aR)-12-(Diphenylmethyl)-7-hydroxy-3,4,12,12a-tetrahydro-1H-[1,4]oxazino[3,4-c]pyrido[2,1-f ][1,2,4]triazine-6,8-dione level at 15 mg/kg, po administered as single dose by LC-MS/MS analysis. Conditions: other tissue. Format: ADME, organism-based.
A short description of data set [15]: Tmax in CD1 mouse plasma assessed as (12aR)-12-(Diphenylmethyl)-7-hydroxy-3,4,12,12a-tetrahydro-1H-[1,4]oxazino[3,4-c]pyrido[2,1-f ][1,2,4]triazine-6,8-dione level at 15 mg/kg, po administered as single dose measured up to 24 hrs by LC-MS/MS analysis. The note with it: in vivo. Format: ADME, organism-based.
Data set [16] is described as follows: Elimination rate constant in CD1 mouse blood assessed as (12aR)-12-(Diphenylmethyl)-7-hydroxy-3,4,12,12a-tetrahydro-1H-[1,4]oxazino[3,4-c]pyrido[2,1-f ][1,2,4]triazine-6,8-dione level at 15 mg/kg, po administered as single dose measured up to 24 hrs by LC-MS/MS analysis. Format: ADME, organism-based. The note with it: in vivo.
Data set [17] in a line: Ratio of AUClast in CD1 mouse liver to plasma assessed as (12aR)-12-(Diphenylmethyl)-7-hydroxy-3,4,12,12a-tetrahydro-1H-[1,4]oxazino[3,4-c]pyrido[2,1-f ][1,2,4]triazine-6,8-dione level at 15 mg/kg, po administered as single dose measured up to 24 hrs by LC-MS/MS analysis. The class given is ADME, organism-based. The note with it: other tissue.
Data set [18] can be described thus: Elimination rate constant in CD1 mouse kidney assessed as (12aR)-12-(Diphenylmethyl)-7-hydroxy-3,4,12,12a-tetrahydro-1H-[1,4]oxazino[3,4-c]pyrido[2,1-f ][1,2,4]triazine-6,8-dione level at 15 mg/kg, po administered as single dose measured up to 24 hrs by LC-MS/MS analysis. Format: ADME, organism-based. The note with it: in vivo.
A short description of data set [19]: MRTlast in CD1 mouse kidney assessed as (12aR)-12-(Diphenylmethyl)-7-hydroxy-3,4,12,12a-tetrahydro-1H-[1,4]oxazino[3,4-c]pyrido[2,1-f ][1,2,4]triazine-6,8-dione level at 15 mg/kg, po administered as single dose measured up to 24 hrs by LC-MS/MS analysis. The class given is ADME, organism-based. Conditions: in vivo.
Data set [20] can be described thus: Cmax in CD1 mouse lung assessed as (12aR)-12-(Diphenylmethyl)-7-hydroxy-3,4,12,12a-tetrahydro-1H-[1,4]oxazino[3,4-c]pyrido[2,1-f ][1,2,4]triazine-6,8-dione level at 15 mg/kg, po administered as single dose measured up to 24 hrs by LC-MS/MS analysis. Format: ADME, organism-based. On the set-up: dose 15 mg/kg, route oral. The note with it: in vivo.
A short description of data set [21]: Half life in CD1 mouse trachea assessed as (12aR)-12-(Diphenylmethyl)-7-hydroxy-3,4,12,12a-tetrahydro-1H-[1,4]oxazino[3,4-c]pyrido[2,1-f ][1,2,4]triazine-6,8-dione level at 15 mg/kg, po administered as single dose measured up to 24 hrs by LC-MS/MS analysis. The class given is ADME, organism-based. The note with it: in vivo.
Data set [22] in a line: Cmax in CD1 mouse trachea assessed as (12aR)-12-(Diphenylmethyl)-7-hydroxy-3,4,12,12a-tetrahydro-1H-[1,4]oxazino[3,4-c]pyrido[2,1-f ][1,2,4]triazine-6,8-dione level at 15 mg/kg, po administered as single dose measured up to 24 hrs by LC-MS/MS analysis. On the set-up: dose 15 mg/kg, route oral. The note with it: in vivo. The class given is ADME, organism-based.
Data set [23] can be described thus: Ratio of AUClast in CD1 mouse muscle to plasma assessed as (12aR)-12-(Diphenylmethyl)-7-hydroxy-3,4,12,12a-tetrahydro-1H-[1,4]oxazino[3,4-c]pyrido[2,1-f ][1,2,4]triazine-6,8-dione level at 15 mg/kg, po administered as single dose measured up to 24 hrs by LC-MS/MS analysis. Format: ADME, organism-based. Conditions: other tissue.

As for `COC(=O)OCOc1c2n(ccc1=O)N([C@@H]1c3ccccc3SCc3c1ccc(F)c3F)[C@@H]1COCCN1C2=O` [BALOXAVIR MARBOXIL], the figures for the Cmax in data set [1] and in data set [10] were 1517 ng/g and 916 ng/g, respectively. In addition, the results for the MRTlast in [2], in data set [7] and in data set [11] were 3.93 h, 1.58 h and 3.35 h, respectively. Moreover, the t1/2 in data set [3] is 2.57 h; in [6], 3.13 h. Besides, the Kel in data set [4] worked out at 0.2 h⁻¹; in data set [5], 0.22 h⁻¹. The Tmax in data set [8] was determined as 2 h. Besides, the AUC in data set [9] is 3640 ng·h/g.

For `COC(=O)OCOc1c2n(ccc1=O)N(C(c1ccccc1)c1ccccc1)[C@@H]1COCCN1C2=O`, the Activity entry in data set [12] is “Non-Toxic”. Further, the AUClast in [13] came out at 3935 ng·h/mL. Further, in data set [14], the Ratio amounted to 2.2. For the same compound, in [15], the Tmax came to 0.5 h. Moreover, the Kel in data set [16] was determined as 0.4 h⁻¹; in [18], 0.27 h⁻¹. Further, the “Ratio AUC” value in [17] is 10.6; in data set [23], 2.26. Moreover, the MRTlast in [19] stood at 2.5 h. Besides, the Cmax turned out to be 2847 ng/g in data set [20] and 3431 ng/g in data set [22]. In [21], the t1/2 came out at 4.91 h.

The values above are taken from ChEMBL document CHEMBL4622979, “Non-rigid Diarylmethyl Analogs of Baloxavir as Cap-Dependent Endonuclease Inhibitors of Influenza Viruses” (J Med Chem, 2020).
